≈ marks a conversion by molar mass, not a printed value. Bridge positions count the residues as written; N and C are the ends. Peptide text beside a SMILES is read from it.
Assays:
[1] = test system: Staphylococcus aureus ATCC 25923; test: MIC and MBC, broth microdilution; format: cell-based
Experimental: (§1) To determine the MIC values of AP138L-arg26, we used the broth microdilution technique as previously described (Andrews. [2001]; Wiegand et al. [2008]). In brief, AP138L-arg26 peptide were diluted from 1280 to 2.5 µg/mL and added to a 96-cells plate with 10 µL per well. The bacteria in the logarithmic stage were diluted to 10^5 CFU/mL with 90 µL per well. […] The MBC method was also based on the CLSI 2021 guidelines.

[2] = test system: Staphylococcus aureus ATCC 43300; test: MIC and MBC, broth microdilution; format: cell-based
Experimental: as §1

[3] = test system: Staphylococcus aureus CAAS-FRI-2023-01; test: MIC and MBC, broth microdilution; format: cell-based
Experimental: as §1

[4] = test system: Staphylococcus aureus CAAS-FRI-2023-02; test: MIC and MBC, broth microdilution; format: cell-based
Experimental: as §1

[5] = test system: Staphylococcus aureus CVCC 546; test: MIC and MBC, broth microdilution; format: cell-based
Experimental: as §1

[6] = test system: Staphylococcus aureus E48; test: MIC and MBC, broth microdilution; format: cell-based
Experimental: as §1

[7] = test system: Staphylococcus epidermidis ATCC 12228; test: MIC and MBC, broth microdilution; format: cell-based
Experimental: as §1

[8] = test system: Staphylococcus epidermidis ATCC 35984; test: MIC and MBC, broth microdilution; format: cell-based
Experimental: as §1

[9] = test system: Streptococcus agalactiae ATCC 13813; test: MIC and MBC, broth microdilution; format: cell-based
Experimental: as §1

[10] = test system: Streptococcus agalactiae CAU-FRI-2022-01; test: MIC and MBC, broth microdilution; format: cell-based
Experimental: as §1

[11] = test system: Streptococcus agalactiae CAU-FRI-2022-02; test: MIC and MBC, broth microdilution; format: cell-based
Experimental: as §1

[12] = test system: Streptococcus dysgalactiae CVCC 3938; test: MIC and MBC, broth microdilution; format: cell-based
Experimental: as §1

[13] = test system: selected standard and clinical Gram-positive bacteria; test: MIC/MBC summary over the panel of strains; format: cell-based, S. aureus, S. epidermidis, S. dysgalactiae, S. agalactiae
Experimental: as §1

S. aureus ATCC 43300 = test: Post-antibiotic effect (PAE) assay; format: cell-based, Staphylococcus aureus
From the text: The method of PAE of AP138L-arg26 against MRSA ATCC 43300 or S. aureus CVCC 546 was described previously (Wang et al. [2018]). The formula is PAE = T − C (T is the time required for the number of colonies in the sample treatment group to increase by tenfold, and C is the time required for the untreated group).

S. aureus CVCC 546 = test: Thermal stability, MIC after treatment; format: physicochemical, Staphylococcus aureus
ICR mice = test: Acute toxicity in mice; format: in vivo, mouse
Experimental: AP138L-arg26 was administrated by intraperitoneal injection (n = 4 per group, 10 mg/kg, body weight 25 g) every day for 1 week (Shi et al. [2022]). After 7 days, the mice were euthanized to collect anticoagulant whole-blood and tissues (liver, spleen, kidney, and lung), which were used for whole blood and biochemical detection, or tissue sections (hematoxylin-eosin (HE) staining), respectively.

S. aureus = test: Intracellular LDH activity; format: cell-based, Staphylococcus aureus; conditions: 6 h, treated cells/the control, n = 3
Experimental: As disruption of the cell membrane structure leads to the release of LDH from the cytoplasm into the culture medium, the detection of LDH in bacteria can further reveal the antibacterial mechanism (Shi et al. [2022]). Briefly, S. aureus cells were co-incubated with AP138L-arg26 for 6 h. Later, the pellets were collected and sonicated (3 s/10 s, 30 times). The intracellular LDH activity was detected using an Infinite M200 Microplate reader (Tecan, Luminescence signals). The calculated results of LDH% = treated cells/the control.

[14] = 99.99% of bacteria killed, plated on MHA
[15] = broth microdilution, 10^5 CFU/mL, 37 °C, 18 h

CC[C@H](C)[C@@H]1NC(=O)[C@H](CO)NC(=O)[C@H](CCCCN)NC(=O)[C@@H]2CSSC[C@@H](C(=O)N[C@@H](Cc3ccc(O)cc3)C(=O)O)NC(=O)[C@H](CCCCN)NC(=O)[C@@H]3CSSC[C@H](NC(=O)[C@H](CCCNC(=N)N)NC(=O)[C@H](CC(C)C)NC(=O)[C@H](CC(=O)O)NC(=O)[C@H](CC(=O)O)NC(=O)[C@H](CCC(=O)O)NC(=O)[C@H](CO)NC(=O)[C@H](Cc4c[nH]c5ccccc45)NC(=O)[C@@H]4CCCN4C(=O)CNC(=O)[C@H](CC(N)=O)NC(=O)[C@@H](NC(=O)CNC(=O)[C@H](Cc4ccccc4)NC(=O)CN)CSSC[C@H](NC(=O)[C@H](Cc4ccc(O)cc4)NC(=O)CNC(=O)CNC(=O)[C@H](CCCNC(=N)N)NC(=O)[C@H](Cc4ccc(O)cc4)NC(=O)CNC(=O)[C@H](CCCCN)NC1=O)C(=O)N[C@@H](C)C(=O)N[C@@H](CCCCN)C(=O)NCC(=O)NCC(=O)N[C@@H](Cc1ccccc1)C(=O)N[C@@H](C(C)C)C(=O)N3)C(=O)N[C@@H](Cc1c[nH]cn1)C(=O)N[C@@H](CCCNC(=N)N)C(=O)N[C@@H](Cc1c[nH]cn1)C(=O)N2 [AP138L-arg26] (H-GFGCNGPWSEDDLRCHRHCKSIKGYRGGYCAKGGFVCKCY-OH; disulfide 4-30, 15-37, 19-39; N-terminus and C-terminus assumed)
MBC [1, 14]: 32 µg/mL (≈ 7.18 µM)
MIC [1, 15]: 16 µg/mL (≈ 3.59 µM)
MBC [2, 14]: 8 µg/mL (≈ 1.8 µM)
MIC [2, 15]: 8 µg/mL (≈ 1.8 µM)
MBC [3, 14]: 16 µg/mL (≈ 3.59 µM)
MIC [3, 15]: 4 µg/mL (≈ 0.898 µM)
MBC [4, 14]: 32 µg/mL (≈ 7.18 µM)
MIC [4, 15]: 8 µg/mL (≈ 1.8 µM)
MBC [5, 14]: 32 µg/mL (≈ 7.18 µM)
MIC [5, 15]: 4 µg/mL (≈ 0.898 µM)
MBC [6, 14]: 8 µg/mL (≈ 1.8 µM)
MIC [6, 15]: 2 µg/mL (≈ 0.449 µM)
MBC [7, 14]: 16 µg/mL (≈ 3.59 µM)
MIC [7, 15]: 4 µg/mL (≈ 0.898 µM)
MBC [8, 14]: 16 µg/mL (≈ 3.59 µM)
MIC [8, 15]: 8 µg/mL (≈ 1.8 µM)
MBC [9, 14]: 8 µg/mL (≈ 1.8 µM)
MIC [9, 15]: 4 µg/mL (≈ 0.898 µM)
MBC [10, 14]: 32 µg/mL (≈ 7.18 µM)
MIC [10, 15]: 4 µg/mL (≈ 0.898 µM)
MBC [11, 14]: 32 µg/mL (≈ 7.18 µM)
MIC [11, 15]: 4 µg/mL (≈ 0.898 µM)
MBC [12, 14]: 32 µg/mL (≈ 7.18 µM)
MIC [12, 15]: 4 µg/mL (≈ 0.898 µM)
MIC against Streptococcus ([13]; Streptococcus strains): 4 µg/mL (≈ 0.898 µM)
MBC relative to MIC ([13]; over the strains of Table 2): around fourfold higher than MICs
MIC against S. aureus ([13]; range over S. aureus strains): 2 to 16 µg/mL
MIC against selected standard and clinical Gram-positive bacteria ([13]; range over all strains of Table 2): 2 to 16 µg/mL
MIC against selected standard and clinical Gram-positive bacteria ([13]; range over all strains, converted from µg/mL): 0.45 to 3.6 µM
PAE (S. aureus ATCC 43300; 1 × MIC, PAE = T − C): 0.9 h
PAE (S. aureus ATCC 43300; 2 × MIC, PAE = T − C): 1.25 h
PAE (S. aureus ATCC 43300; 4 × MIC, PAE = T − C): 1.91 h
PAE (S. aureus ATCC 43300; as given in the abstract, concentration not given): 1.91 h
MIC, Heat (20 °C) (S. aureus CVCC 546; peptide incubated at 20 °C for 1 h, then MIC assay): 8 µg/mL (≈ 1.8 µM)
MIC, Heat (40 °C) (S. aureus CVCC 546; peptide incubated at 40 °C for 1 h, then MIC assay): 8 µg/mL (≈ 1.8 µM)
MIC, Heat (60 °C) (S. aureus CVCC 546; peptide incubated at 60 °C for 1 h, then MIC assay): 8 µg/mL (≈ 1.8 µM)
MIC, Heat (80 °C) (S. aureus CVCC 546; peptide incubated at 80 °C for 1 h, then MIC assay): 8 µg/mL (≈ 1.8 µM)
MIC, Heat (100 °C) (S. aureus CVCC 546; peptide incubated at 100 °C for 1 h, then MIC assay): > 64 µg/mL
MIC, Control (without treatment) (S. aureus CVCC 546; peptide without treatment, reference value of the stability tests): 8 µg/mL (≈ 1.8 µM)
histology (HE) of heart, kidney, spleen, lung and liver (ICR mice; 10 mg/kg i.p. daily for a week): no hyperemia, bleeding, hyperplasia, or other lesions
whole blood detection indexes and biochemical indexes compared with the control group (ICR mice; 10 mg/kg i.p. daily for a week): no significant differences
difference in biochemical index versus control (ICR mice; 10 mg/kg i.p. for 1 week): < 4%
difference in whole blood detection indexes versus control (ICR mice; 10 mg/kg i.p. for 1 week): < 4.5%
LDH activity % (S. aureus; 1 × MIC): 24%
LDH activity % (S. aureus; 2 × MIC): 16%
LDH activity % (S. aureus; 4 × MIC): 16%

Source: publication PMC10787893, “Expression and characterization of the new antimicrobial peptide AP138L-arg26 anti Staphylococcus aureus” (Applied Microbiology and Biotechnology, 2024)
